These results are taken from patent US20240016245A1, “ANTIMICROBIAL FACEMASK” (BMG (British Medical Group) Limited, priority 2020, published 2024).

The series in a line: Compatibility of surfactants with copper sulfate solutions for coating fabric. The class given is physicochemical.

As to `CCCCCCCCCCCC[N+](C)(C)[O-]` [dimethyl dodecylamine N-oxide], the “precipitation from copper sulfate solutions / solution suitable for coating” value is “causing precipitation”.

For the compound `CCCCCCCCCCCC[N+](C)(C)CC(=O)O` [dimethyl dodecylglycine betaine], the “precipitation from copper sulfate solutions / solution suitable for coating” value was “did not cause precipitation”.

Turning to `CCCCCCCCCCCC[N+](C)(C)CCCS(=O)(=O)O` [lauryl sulfobetaine], the “precipitation from copper sulfate solutions / solution suitable for coating” value is “did not cause precipitation”.

On to `CCCCCCCCCCCCOS(=O)(=O)[O-].[Na+]` [sodium dodecylsulfate], for which the “precipitation from copper sulfate solutions / solution suitable for coating” value is listed as “acceptable solution for coating”.

Regarding sodium dodecylbenzenesulfonate, the “solubility in solutions of copper sulfate” value (in solutions of copper sulfate) is “very low and insufficient solubility”.
